Assay results published in PubChem BioAssay (NCI).
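Values below derive from 48-hour exposures of cells grown in 96-well plates, with endpoints linearly interpolated between the two concentrations bracketing the appropriate inhibition level. TGI marks complete inhibition of growth.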

Columns and labels:
Test in all cases: DTP human tumour cell line panel, 48 h
LOX IMVI melanoma = test system: LOX IMVI melanoma
SF-539 CNS = test system: SF-539 CNS
CCRF-CEM leukemia = test system: CCRF-CEM leukemia
SK-MEL-28 melanoma = test system: SK-MEL-28 melanoma
SN12C renal = test system: SN12C renal
TK-10 renal = test system: TK-10 renal
NCI-H23 lung = test system: NCI-H23 lung
SW-620 colon = test system: SW-620 colon
SK-MEL-5 melanoma = test system: SK-MEL-5 melanoma
IGROV1 ovarian = test system: IGROV1 ovarian
HOP-62 NSCLC = test system: HOP-62 NSCLC
NCI-H522 lung = test system: NCI-H522 lung
HCT-15 colon = test system: HCT-15 colon
SR leukemia = test system: SR leukemia

## Cc1nc(N)c(-c2ccccc2)s1
LOX IMVI melanoma
  TGI: > 94.4 µM
SF-539 CNS
  TGI: > 100 µM
CCRF-CEM leukemia
  TGI: > 73.9 µM
SK-MEL-28 melanoma
  TGI: > 100 µM
SN12C renal
  TGI: > 100 µM
TK-10 renal
  TGI: > 100 µM
NCI-H23 lung
  TGI: > 100 µM
SW-620 colon
  TGI: > 45.6 µM
SK-MEL-5 melanoma
  TGI: > 100 µM
IGROV1 ovarian
  TGI: > 100 µM
HOP-62 NSCLC
  TGI: > 100 µM
NCI-H522 lung
  TGI: > 100 µM
HCT-15 colon
  TGI: > 62.1 µM

## CCCCNC(=NCc1ccccc1)NC#N
LOX IMVI melanoma
  TGI: > 100 µM
SF-539 CNS
  TGI: > 100 µM
CCRF-CEM leukemia
  TGI: > 100 µM
SK-MEL-28 melanoma
  TGI: > 100 µM
SN12C renal
  TGI: > 100 µM
TK-10 renal
  TGI: > 100 µM
NCI-H23 lung
  TGI: > 100 µM
SW-620 colon
  TGI: > 100 µM
SK-MEL-5 melanoma
  TGI: > 100 µM
IGROV1 ovarian
  TGI: > 100 µM
HOP-62 NSCLC
  TGI: > 100 µM
NCI-H522 lung
  TGI: > 100 µM
HCT-15 colon
  TGI: > 100 µM
SR leukemia
  TGI: > 100 µM

## CCN(CC)CCC1(C2CCCCC2)CCC(=O)NC1=O (stereo not given)
LOX IMVI melanoma
  TGI: > 100 µM
SF-539 CNS
  TGI: > 100 µM
CCRF-CEM leukemia
  TGI: > 100 µM
SK-MEL-28 melanoma
  TGI: > 100 µM
SN12C renal
  TGI: > 100 µM
TK-10 renal
  TGI: > 100 µM
NCI-H23 lung
  TGI: > 100 µM
SW-620 colon
  TGI: > 100 µM
SK-MEL-5 melanoma
  TGI: > 100 µM
IGROV1 ovarian
  TGI: > 100 µM
HOP-62 NSCLC
  TGI: > 100 µM
NCI-H522 lung
  TGI: > 100 µM
HCT-15 colon
  TGI: > 100 µM

## CC1(C)OCN(c2ccc(S(N)(=O)=O)cc2)Cn2c1nc1ccccc12
LOX IMVI melanoma
  TGI: > 100 µM
SF-539 CNS
  TGI: > 100 µM
CCRF-CEM leukemia
  TGI: > 100 µM
SK-MEL-28 melanoma
  TGI: > 100 µM
SN12C renal
  TGI: > 100 µM
TK-10 renal
  TGI: > 100 µM
NCI-H23 lung
  TGI: > 100 µM
SW-620 colon
  TGI: > 100 µM
IGROV1 ovarian
  TGI: > 100 µM
HOP-62 NSCLC
  TGI: > 100 µM
NCI-H522 lung
  TGI: > 100 µM
HCT-15 colon
  TGI: > 100 µM
SR leukemia
  TGI: > 100 µM

## C/C(=N/NC(=O)C[n+]1ccccc1)C(CN(CC(C)C)CC(C)C)C(=O)Nc1ccc(C)cc1C (stereo not given)
SF-539 CNS
  TGI: > 100 µM
CCRF-CEM leukemia
  TGI: > 100 µM
SK-MEL-28 melanoma
  TGI: > 100 µM
SN12C renal
  TGI: > 100 µM
TK-10 renal
  TGI: > 100 µM
NCI-H23 lung
  TGI: > 100 µM
SW-620 colon
  TGI: > 100 µM
SK-MEL-5 melanoma
  TGI: > 100 µM
IGROV1 ovarian
  TGI: > 100 µM
HOP-62 NSCLC
  TGI: > 100 µM
NCI-H522 lung
  TGI: > 100 µM
SR leukemia
  TGI: > 100 µM

## C[C@@]1(Cc2ccccc2)C(=O)N2[C@@H](CO)C(c3ccccc3)O[C@]2(C)c2ccccc21 (stereo not given in full)
LOX IMVI melanoma
  TGI: > 100 µM
SF-539 CNS
  TGI: > 100 µM
CCRF-CEM leukemia
  TGI: > 100 µM
SK-MEL-28 melanoma
  TGI: > 100 µM
TK-10 renal
  TGI: > 100 µM
NCI-H23 lung
  TGI: > 100 µM
SW-620 colon
  TGI: > 100 µM
SK-MEL-5 melanoma
  TGI: > 100 µM
IGROV1 ovarian
  TGI: > 100 µM
HOP-62 NSCLC
  TGI: > 100 µM
NCI-H522 lung
  TGI: > 100 µM
HCT-15 colon
  TGI: > 100 µM
SR leukemia
  TGI: > 100 µM

## Clc1ccc(CCc2ccncn2)c(Cl)c1
LOX IMVI melanoma
  TGI: > 100 µM
SF-539 CNS
  TGI: > 100 µM
SK-MEL-28 melanoma
  TGI: > 100 µM
SN12C renal
  TGI: > 100 µM
TK-10 renal
  TGI: > 100 µM
NCI-H23 lung
  TGI: > 100 µM
SW-620 colon
  TGI: > 100 µM
SK-MEL-5 melanoma
  TGI: 51.2 µM
IGROV1 ovarian
  TGI: > 100 µM
HOP-62 NSCLC
  TGI: > 100 µM
NCI-H522 lung
  TGI: > 100 µM
HCT-15 colon
  TGI: > 100 µM

## COc1ccccc1-n1c(N)c2c(C)c(-c3ccccc3)[nH]c2nc1=S
LOX IMVI melanoma
  TGI: > 100 µM
SF-539 CNS
  TGI: > 100 µM
CCRF-CEM leukemia
  TGI: > 100 µM
SK-MEL-28 melanoma
  TGI: > 100 µM
SN12C renal
  TGI: > 100 µM
TK-10 renal
  TGI: > 100 µM
NCI-H23 lung
  TGI: > 100 µM
SW-620 colon
  TGI: > 100 µM
SK-MEL-5 melanoma
  TGI: > 100 µM
HOP-62 NSCLC
  TGI: > 100 µM
NCI-H522 lung
  TGI: > 100 µM
HCT-15 colon
  TGI: > 100 µM
SR leukemia
  TGI: > 100 µM

## CCOc1ccc(/C=C(\Cl)c2ccc(OC)cc2)cc1
SF-539 CNS
  TGI: > 100 µM
CCRF-CEM leukemia
  TGI: > 100 µM
SK-MEL-28 melanoma
  TGI: > 100 µM
SN12C renal
  TGI: > 100 µM
NCI-H23 lung
  TGI: > 100 µM
SW-620 colon
  TGI: > 100 µM
SK-MEL-5 melanoma
  TGI: > 100 µM
IGROV1 ovarian
  TGI: > 100 µM
HOP-62 NSCLC
  TGI: > 100 µM
NCI-H522 lung
  TGI: > 100 µM
HCT-15 colon
  TGI: > 100 µM
SR leukemia
  TGI: > 100 µM

## CC/C(=N/O)c1ccc2[nH]c3c(C)cc([N+](=O)[O-])c(C)c3c2c1
LOX IMVI melanoma
  TGI: > 100 µM
SF-539 CNS
  TGI: > 100 µM
CCRF-CEM leukemia
  TGI: > 100 µM
SK-MEL-28 melanoma
  TGI: > 100 µM
SN12C renal
  TGI: > 100 µM
TK-10 renal
  TGI: > 100 µM
NCI-H23 lung
  TGI: > 100 µM
SW-620 colon
  TGI: > 100 µM
SK-MEL-5 melanoma
  TGI: > 100 µM
HOP-62 NSCLC
  TGI: > 100 µM
NCI-H522 lung
  TGI: > 100 µM
HCT-15 colon
  TGI: > 100 µM
SR leukemia
  TGI: > 100 µM

## CC(C)N(C(=O)C12C3C4C1C1C2C3C41I)C(C)C (stereo not given)
CCRF-CEM leukemia
  TGI: > 100 µM
SK-MEL-28 melanoma
  TGI: > 100 µM
SN12C renal
  TGI: > 100 µM
TK-10 renal
  TGI: > 100 µM
NCI-H23 lung
  TGI: > 100 µM
SW-620 colon
  TGI: > 100 µM
SK-MEL-5 melanoma
  TGI: > 100 µM
IGROV1 ovarian
  TGI: > 100 µM
NCI-H522 lung
  TGI: > 100 µM
SR leukemia
  TGI: > 100 µM

## O=C(Cc1ccc([N+](=O)[O-])c([N+](=O)[O-])c1CC(=O)C(=O)Nc1cc(Cl)ccc1Cl)C(=O)Nc1cc(Cl)ccc1Cl
LOX IMVI melanoma
  TGI: 65.9 µM
SF-539 CNS
  TGI: > 100 µM
CCRF-CEM leukemia
  TGI: > 100 µM
SK-MEL-28 melanoma
  TGI: > 100 µM
SN12C renal
  TGI: > 100 µM
TK-10 renal
  TGI: > 100 µM
NCI-H23 lung
  TGI: > 100 µM
SW-620 colon
  TGI: > 100 µM
SK-MEL-5 melanoma
  TGI: > 100 µM
IGROV1 ovarian
  TGI: > 100 µM
HOP-62 NSCLC
  TGI: > 100 µM
HCT-15 colon
  TGI: 45.1 µM
SR leukemia
  TGI: > 100 µM

## Oc1cc(CN2CCOCCOCCOCCOCC2)c(O)cc1CN1CCOCCOCCOCCOCC1
LOX IMVI melanoma
  TGI: 66.4 µM
SF-539 CNS
  TGI: > 100 µM
CCRF-CEM leukemia
  TGI: 44 µM
SK-MEL-28 melanoma
  TGI: 54.7 µM
TK-10 renal
  TGI: > 96.2 µM
NCI-H23 lung
  TGI: > 100 µM
SW-620 colon
  TGI: 53.1 µM
SK-MEL-5 melanoma
  TGI: > 100 µM
IGROV1 ovarian
  TGI: > 100 µM
HOP-62 NSCLC
  TGI: > 100 µM
NCI-H522 lung
  TGI: 31.6 µM
HCT-15 colon
  TGI: > 67.4 µM
SR leukemia
  TGI: 43.8 µM

## Cc1nc(-n2nc(-c3ccccc3)cc2-c2ccccc2)sc1C(=O)/C=C/c1ccc(Cl)c(Cl)c1
LOX IMVI melanoma
  TGI: 27.5 µM
SF-539 CNS
  TGI: 44.5 µM
CCRF-CEM leukemia
  TGI: 69.7 µM
SK-MEL-28 melanoma
  TGI: > 100 µM
SN12C renal
  TGI: 44.3 µM
TK-10 renal
  TGI: > 100 µM
NCI-H23 lung
  TGI: > 100 µM
SW-620 colon
  TGI: 57.3 µM
IGROV1 ovarian
  TGI: 30 µM
HOP-62 NSCLC
  TGI: > 100 µM
NCI-H522 lung
  TGI: 21.6 µM
HCT-15 colon
  TGI: 39.9 µM
SR leukemia
  TGI: 76.8 µM

## Cc1ccc(NC(=O)CSc2nnc(Cc3ccccc3)o2)cc1
LOX IMVI melanoma
  TGI: > 100 µM
SF-539 CNS
  TGI: > 100 µM
CCRF-CEM leukemia
  TGI: > 100 µM
SK-MEL-28 melanoma
  TGI: > 100 µM
SN12C renal
  TGI: > 100 µM
TK-10 renal
  TGI: > 100 µM
NCI-H23 lung
  TGI: > 100 µM
SW-620 colon
  TGI: > 100 µM
SK-MEL-5 melanoma
  TGI: > 100 µM
IGROV1 ovarian
  TGI: > 100 µM
HOP-62 NSCLC
  TGI: > 100 µM
NCI-H522 lung
  TGI: > 100 µM
HCT-15 colon
  TGI: > 100 µM
